Reference: PubChem BioAssay AID248 (DTP/NCI, 2004)
Several values for one entry are separate records, joined by “and”; a condition that tells them apart may be missing. Identical values can stand only once. Toxic doses and inconclusive results are not listed. Rule as the data show it: active = T/C of 150% or more; inactive = T/C below 125%.

Test system: L1210 leukemia ip in BDF1 mice, survival T/C
Experiment: NCI In Vivo Anticancer Drug Screen. Data for tumor model L1210 Leukemia (intraperitoneal) in B6D2F1 (BDF1) mice
Conditions: endpoint: mean survival time, higher = longer survival
Description: The antitumor activity of compounds was measured in mice bearing transplantable tumors. Survival or tumor size were measured and the results are expressed as the measurement made in the treated group (T) divided by the measurement made in the vehicle treated control group (C). The tumor model used in this assay is L1210 Leukemia (intraperitoneal) in B6D2F1 (BDF1) mice

[1] = dose: 100.0 mg/kg/injection, schedule: Q01DX009 (ip), vehicle: saline with Tween-80
[2] = dose: 200.0 mg/kg/injection, schedule: Q01DX009 (ip), vehicle: saline with Tween-80
[3] = dose: 100.0 mg/kg/injection, schedule: Q04DX003 (ip), vehicle: saline with Tween-80
[4] = dose: 200.0 mg/kg/injection, schedule: Q04DX003 (ip), vehicle: saline with Tween-80
[5] = dose: 400.0 mg/kg/injection, schedule: Q01DX009 (ip), vehicle: saline with Tween-80
[6] = dose: 400.0 mg/kg/injection, schedule: Q04DX003 (ip), vehicle: saline with Tween-80
[7] = dose: 100.0 mg/kg/injection, schedule: Q01DX009 (ip), vehicle: Klucel (hydroxypropylcellulose) (HPC)
[8] = dose: 200.0 mg/kg/injection, schedule: Q01DX009 (ip), vehicle: Klucel (hydroxypropylcellulose) (HPC)
[9] = dose: 400.0 mg/kg/injection, schedule: Q01DX009 (ip), vehicle: Klucel (hydroxypropylcellulose) (HPC)
[10] = dose: 100.0 mg/kg/injection, schedule: Q01DX001 (ip), vehicle: saline with Tween-80
[11] = dose: 200.0 mg/kg/injection, schedule: Q01DX001 (ip), vehicle: saline with Tween-80
[12] = dose: 50.0 mg/kg/injection, schedule: Q01DX009 (ip), vehicle: saline with Tween-80
[13] = dose: 100.0 mg/kg/injection, schedule: Q01DX001 (ip), vehicle: saline
[14] = dose: 200.0 mg/kg/injection, schedule: Q01DX001 (ip), vehicle: saline
[15] = dose: 400.0 mg/kg/injection, schedule: Q01DX001 (ip), vehicle: saline
[16] = dose: 100.0 mg/kg/injection, schedule: Q04DX003 (ip), vehicle: Klucel (hydroxypropylcellulose) (HPC)
[17] = dose: 200.0 mg/kg/injection, schedule: Q04DX003 (ip), vehicle: Klucel (hydroxypropylcellulose) (HPC)
[18] = dose: 100.0 mg/kg/injection, schedule: Q04DX002 (ip), vehicle: saline with Tween-80
[19] = dose: 200.0 mg/kg/injection, schedule: Q04DX002 (ip), vehicle: saline with Tween-80
[20] = dose: 400.0 mg/kg/injection, schedule: Q04DX003 (ip), vehicle: Klucel (hydroxypropylcellulose) (HPC)

Measured: T/C

CC(=O)NCCc1ccc(S(=O)(=O)F)cc1
inactive: [1] 91 % of control | [2] 102 % of control

O=C(/C=C/c1ccc(O)cc1)c1ccccc1
inactive: [1] 102 % of control | [3] 109 % of control | [2] 108 % of control | [4] 102 % of control | [5] 102 % of control | [6] 98 % of control

Cc1cc(Cl)c(Cl)cc1NC(=O)c1cccc([N+](=O)[O-])c1
inactive: [7] 93 % of control | [8] 96 % of control | [9] 100 % of control

O=C(CCc1ccccc1)NC(=S)Nc1cccc([N+](=O)[O-])c1
inactive: dose: 12.5 mg/kg/injection, schedule: Q01DX009 (ip), vehicle: saline with Tween-80 96 % of control and 98 % of control | dose: 50.0 mg/kg/injection, schedule: Q04DX003 (ip), vehicle: saline with Tween-80 96 % of control | [10] 93 % of control | dose: 100.0 mg/kg/injection, schedule: Q04DX002 (ip), vehicle: alcohol 104 % of control | [3] 91 % of control | [11] 104 % of control | dose: 200.0 mg/kg/injection, schedule: Q04DX002 (ip), vehicle: alcohol 93 % of control and 100 % of control | [4] 86 % of control | dose: 400.0 mg/kg/injection, schedule: Q04DX002 (ip), vehicle: alcohol 96 % of control

CC(=O)Nc1ccc(S(=O)(=O)NC(C)=O)cc1
inactive: dose: 100.0 mg/kg/injection, schedule: Q01DX001 (ip), vehicle: other 94 % of control | [1] 108 % of control | dose: 200.0 mg/kg/injection, schedule: Q01DX001 (ip), vehicle: other 96 % of control | dose: 400.0 mg/kg/injection, schedule: Q01DX001 (ip), vehicle: other 107 % of control | [5] 97 % of control

CCN(CC)CCNc1ccc([N+](=O)[O-])cc1[N+](=O)[O-]
inactive: [12] 88 % of control | dose: 100.0 mg/kg/injection, schedule: Q01DX001 (ip), vehicle: Klucel (hydroxypropylcellulose) (HPC) 103 % of control | [1] 102 % of control | dose: 200.0 mg/kg/injection, schedule: Q01DX001 (ip), vehicle: Klucel (hydroxypropylcellulose) (HPC) 103 % of control

COC(=O)CCC(NC(=O)c1cccc(N(C)C=O)c1)C(=O)OC (configuration not stated)
inactive: [12] 97 % of control | [1] 95 % of control | [2] 105 % of control

ClB(Cl)c1ccccc1
inactive: [13] 92 % of control | [14] 92 % of control | [15] 101 % of control

CCCCN(CCCC)C(=O)C1C=C2c3cccc4[nH]cc(c34)CC2N(C#N)C1 (configuration not stated)
inactive: dose: 25.0 mg/kg/injection, schedule: Q01DX009 (ip), vehicle: saline with Tween-80 97 % of control | [12] 91 % of control | [1] 94 % of control | [3] 101 % of control | [2] 87 % of control | [4] 100 % of control | [6] 96 % of control

C=CCc1ccc(OCCOCCN(C)C2CCCCC2)c(OC)c1
inactive: [16] 90 % of control

CNC(=O)C(c1ccccc1)C(F)(F)F (configuration not stated)
inactive: [10] 97 % of control | [11] 109 % of control | dose: 400.0 mg/kg/injection, schedule: Q01DX001 (ip), vehicle: saline with Tween-80 105 % of control

O=[N+]([O-])c1ccc(C(Br)Br)cc1
inactive: [16] 93 % of control | [17] 93 % of control

C#C/C(CCC)=N\Nc1ccc([N+](=O)[O-])cc1[N+](=O)[O-]
inactive: dose: 50.0 mg/kg/injection, schedule: Q04DX002 (ip), vehicle: saline with Tween-80 88 % of control | [18] 94 % of control | [19] 88 % of control

NC(=O)c1cncc(C(N)=O)c1
inactive: dose: 100.0 mg/kg/injection, schedule: Q04DX002 (ip), vehicle: saline 103 % of control | dose: 200.0 mg/kg/injection, schedule: Q04DX002 (ip), vehicle: saline 95 % of control | dose: 400.0 mg/kg/injection, schedule: Q04DX002 (ip), vehicle: saline 100 % of control

CCCCOC(=O)CSC(=O)C(O)c1ccccc1 (configuration not stated)
inactive: [3] 105 % of control | [4] 101 % of control | [6] 103 % of control

CCC(Br)C(Br)CC(Br)C(Br)CC(Br)C(Br)CCCCCCCC(=O)O (configuration not stated)
inactive: [7] 96 % of control | [16] 98 % of control | [8] 88 % of control | [17] 89 % of control | [9] 88 % of control | [20] 92 % of control

O=C(Nc1ccc(Cl)cc1)Oc1ccc(Br)cc1Br
inactive: [7] 100 % of control | [8] 96 % of control | [9] 104 % of control

COc1ccccc1NC(N)=S
inactive: dose: 25.0 mg/kg/injection, schedule: Q01DX009 (ip), vehicle: Klucel (hydroxypropylcellulose) (HPC) 94 % of control | dose: 25.0 mg/kg/injection, schedule: Q04DX003 (ip), vehicle: Klucel (hydroxypropylcellulose) (HPC) 98 % of control | dose: 50.0 mg/kg/injection, schedule: Q01DX009 (ip), vehicle: Klucel (hydroxypropylcellulose) (HPC) 97 % of control | dose: 50.0 mg/kg/injection, schedule: Q04DX003 (ip), vehicle: Klucel (hydroxypropylcellulose) (HPC) 92 % of control | [7] 101 % of control | [16] 103 % of control

CCCCCCCCCCCCCCCc1cc(=O)n(-c2cccc([N+](=O)[O-])c2)n1C
inactive: [16] 96 % of control | [17] 94 % of control | [20] 92 % of control

C/C(=C\c1ccc([N+](=O)[O-])cc1)C(=O)Nc1ccc(S(=O)(=O)F)cc1
inactive: [1] 95 % of control | [2] 93 % of control | [5] 98 % of control

O=Cc1ccc(C=O)cc1
inactive: [3] 94 % of control | [4] 105 % of control | [6] 106 % of control

OC1C2CCN(CC2)C1CN1CCOCC1 (configuration not stated)
inactive: [13] 107 % of control | dose: 100.0 mg/kg/injection, schedule: Q01DX009 (ip), vehicle: saline 94 % of control | [14] 108 % of control | dose: 200.0 mg/kg/injection, schedule: Q01DX009 (ip), vehicle: saline 91 % of control | [15] 97 % of control | dose: 400.0 mg/kg/injection, schedule: Q01DX009 (ip), vehicle: saline 91 % of control

Cc1cc2c(c3[nH]c4ccccc4c13)C(=O)c1ccccc1C2=O
inactive: [13] 102 % of control | [14] 95 % of control | [15] 102 % of control

O=CN/N=C/c1cc(Cl)cc(Cl)c1O
inactive: [16] 100 % of control | [17] 92 % of control | [20] 94 % of control

O[Si](c1ccccc1)(c1ccccc1)c1ccccc1
inactive: [1] 95 % of control | [18] 100 % of control | [2] 88 % of control | [19] 96 % of control | [5] 91 % of control | dose: 400.0 mg/kg/injection, schedule: Q04DX002 (ip), vehicle: saline with Tween-80 87 % of control

O=c1[nH]nc(-c2ccc(Cl)cc2Cl)s1
inactive: [16] 95 % of control | [17] 101 % of control | [20] 112 % of control
